“Also recorded” adds a separate entry of the source. Marks after values point to notes of the source that are not given here.
Legend:
[1] = test system: transgenic neutrophil fluorescent zebrafishes; assay: Anti-inflammatory effect on LPS-induced inflammatory zebrafish; format: in vivo; details: 80 μM; for Number of neutrophils (mean ± SE): 3 h, n = 10, model control 18, normal control 3
Protocol: LPS was used to treat normal 3 dpf transgenic neutrophil fluorescent zebrafishes in a yolk sac injection, and a zebrafish inflammation model was established.
Transgenic neutrophil fluorescent zebrafishes (3 dpf), well developed and consistent in stage on 3 days after fertilization, were picked under a microscope and placed in a six-well plate, with 30 zebrafishes being randomly picked for each well at a capacity of 3 mL in each well. A zebrafish inflammation model was established by administrating LPS in a yolk sac injection. “Embodiment 5” and “Embodiment 6” were respectively dissolved with water, wherein the concentrations were 0.28 μM, 0.83 μM and 2.5 μM, respectively. The concentration of indomethacin was 80 μM. Meanwhile, a normal control group (i.e., zebrafishes were treated with fish-farming water) and a model control group were set, and incubated in a 28° C. incubator for 3 h. 10 zebrafishes were randomly selected from each group, and observed and photographed under a fluorescence microscope, and the photos were saved. Nikon NIS-Elements D 3.10 advanced image processing software was used for image analysis, the number (N) of inflammatory neutrophils in zebrafish was calculated, and the statistical processing results were expressed as mean±SE. The statistical analysis results of the number of inflammatory neutrophils in zebrafish were used to evaluate whether “Embodiment 5” and “Embodiment 6” had significant anti-inflammatory effects on LPS-induced inflammatory zebrafish, respectively. A formula for calculating the anti-inflammatory effects of “Embodiment 5” and “Embodiment 6” was as follows: […]

[2] = test system: C57BL/6J mice, LPS-induced peripheral and central inflammation; assay: LPS-induced peripheral and central inflammation mouse model; format: in vivo; details: 30 mg/kg p.o. QD*3
Protocol: Modeling method: LPS (2 mg/kg, i.p., QD) was injected on Day 1, Day 2 and Day 3 to induce peripheral and central inflammations of mice. An ND drug test group was subjected to administration pre-protection (ND 30 mg/kg, p.o., QD) 2 h before LPS injection. After the experiment, plasma and brain tissues of the mice were collected for inflammatory factors, peroxidation factors and other indicators.
• Serum: after the mice were anesthetized with 1% sodium pentobarbital, the eyeballs were harvested, the blood was taken and placed in an EP tube, and then centrifuged at low temperature after standing at 4° C. for 1 h, and a supernatant was taken, and frozen quickly in liquid nitrogen. • Hippocampal tissues: the mice were anesthetized with 1% sodium pentobarbital and then subjected to cardiac perfusion with cold PBS, brains were harvested, and tissues were taken on ice and frozen quickly in an EP tube with liquid nitrogen.
Cryopreserved plasma was taken, and an reactive oxygen detection kit, a hydrogen peroxide detection kit and a nitric oxide detection kit were used to detect various indicators. The specific operation processes were the same as the instruction of each kit.
The cryopreserved hippocampal tissues were taken, added with a RIPA tissue lysate containing a protease inhibitor, fully homogenized and cleaved. A supernatant was taken after low-temperature centrifugation. The protein quantification was performed by a BCA protein quantification kit. Tissue samples were adjusted to a unified protein concentration. An reactive oxygen detection kit, a hydrogen peroxide detection kit and a nitric oxide detection kit were used to detect various indicators.
Cryopreserved plasma was taken, and IL-1β, IL-6 and IL-10 kits were used to detect various indicators. The specific operation processes were the same as the instruction of each kit.
A hippocampal tissue supernatant was taken, and IL-1β, IL-6 and IL-10 kits were used to detect various indicators. The specific operation processes were the same as the instruction of each kit.
Experimental results were expressed as “mean±standard deviation”. One-way ANOVA was used to compare the data of each group to determine whether there was a statistical difference between the groups.

[3] = test system: rats with ulcerative colitis induced by TNBS; assay: TNBS rats enteritis model; format: in vivo, rat; details: 80 mpk oral gavage once a day, 7 days
Protocol: All rats except the normal control group were fasted for solids (not liquids) for 24 h. After being anesthetized with isoflurane, the rats were transrectally infused with a TNBS ethanol solution (18 mg TNBS/mouse) at 0.5 mL/mouse through a latex hose, the length of the hose into the rectum was about 8 cm, an anesthesia state was continued after the hose was withdrawn, and the rats were kept in an inclined state for 15 min. The rats in the normal control group were not stimulated with rectal cannula. After the animals were awake, they were randomly divided into groups, which then began to be administrated with drugs (marked as D1). The blank group and the model group were administrated with the same amount of vehicle by oral gavage once a day for 7 consecutive days (D1-D7). The animal's status and feces (loose stools or bloody stools) were observed every day. The body weights were monitored. On the next day after the last administration (D8), the animals were deeply anesthetized with CO2, sacrificed and dissected. The entire colon tissues were harvested. The colon content was washed with normal saline after dissection along the mesenteric side. The body weights were measured and the colon lengths were measured. A ulcer surface was measured by Image J software. The general conditions of the colons were observed and photographed. Some of diseased tissues were fixed with formalin, and subjected to histopathological observation by HE staining. • Results: (1) the effects on general conditions of TNBS colitis mice were shown in FIG. 46a: the rats had loose stool on the next day of TNBS modeling; and the modeled mice had symptoms of reduced diet, tiredness, emaciation, erect hair, and dull hair. The feces of some rats were improved in the later stage of administration, but some rats still maintained loose stool until the end of the experiment, and some rats had obvious abdominal distension in the later stage of the experiment.

[4] = test system: mice with ulcerative colitis induced by 3.0% DSS; assay: DSS mouse enteritis model; format: in vivo
From the text: 60 mice in good health were divided into 6 groups according to body weight, with 10 mice in each group: a normal control group, a model group, a positive drug group, and groups of different test products (Embodiment 13B, Embodiment 33, and Embodiment 34, at a dosage of 80 mpk each). In addition to the normal control group, the mice in other groups were administrated with a 3.0% DSS solution to drink freely, and consecutively modeled for 8 days. The normal control group was administrated with autoclaved filtered water to drink freely. The drug was administered on the day of modeling, and a test product was administered by oral gavage according to a designed dosage, once a day for 9 consecutive days. […] On the next day after the last administration, after deep anesthesia with CO2, cardiac blood and plasma were collected, and cryopreserved at −80° C. Subsequently, the abdominal cavity was dissected, the liver was removed and cryopreserved at −80° C. Finally, the entire colon tissue was removed, the colon length was measured, photographs were taken, and the colon content was washed with normal saline after dissection along the mesenteric side and weighed.

[5] = test system: human SHSY5Y neural tumor cells; assay: H2O2-induced oxidative damage of SHSY5Y cells (MTT); format: cell-based; details: 1 μM, pre-protected 24 h, 250 μM H2O2 24 h
hippocampal neurons = assay: L-cysteine-induced neuronal excitotoxicity; format: cell-based, SD rats; details: for protective effects on L-Cystine (400 μM)-induced neuronal excitotoxicity: compound 1 μM, 24 h before inducer
Protocol: Experimental and analytical method: before the experiment, a 24-well cell culture plate was pretreated with Poly-D-lysine and placed in a cell incubator at 37° C. and 5% CO2 overnight. SD rats, 18 days pregnant, were ordered, brains of fetal rats (E18-19) were dissected, and hippocampal neurons in the brains were subjected to primary culture in a neuronal medium using a 24-well plate, and then cultured by a serum-free medium. The hippocampal neurons were cultured in a cell incubator at 37° C., 5% CO2 for 19 days (DIV19), then added with a compound to be tested (a final concentration of 1 μM) and a positive control AP5 [(2R)-amino-5-phosphonopentanoic acid(phosphonatopentanoate)] (a final concentration of 100 μM), cultured for 24 h, and then added with L-Cystine (400 μM) and NaHCO3 (10 mM). After 18 h, Hoechst3342 (2.5 μg/ml) was added for cell staining. The cells were placed in the incubator and cultured for 15 min, and photographed using the high-content fluorescence microscope, wherein 6 random non-overlapping fields were photographed for each duplicate well, and the total number of neurons and the number of dead neurons were counted with software Image J. The obtained data was used to determine whether there was a difference between a drug treatment group and a control group.
Compound treatment: 32 small molecule compounds in Embodiment 1 to Embodiment 19A were diluted with DMSO to a 1 mM mother solution; and 1 μL of mother solution was added to 1 ml of culture solution per well in a 24-well plate to a final concentration of 1 μM, wherein a positive control compound was […] of AP5 (100 mM mother solution), and a negative control was 1 μl of DMSO.

[6] = 80 mpk oral gavage once a day, 9 days

COc1ccc2c(c1)c(CC(=O)O)c(C)n2C(=O)c1ccc(Cl)cc1 [indomethacin, Indomethacin, reference compound]
Inflammation resolution (%) / anti-inflammatory effect [1]: 67% | Number of neutrophils (mean ± SE) [1]: 6 | Number of neutrophils (mean ± SE) ([1]; listed as Indomethacin): 6 ± 0.31 | anti-inflammatory effect on inflammatory zebrafish (in words) ([1]; P<0.001 vs model control): obvious anti-inflammatory effect | Inflammation resolution (%) / anti-inflammatory effect ([1]; listed as Indomethacin): 67*** %

C[C@@H]1CC[C@@]2(OC1)OC1CC3C4CC[C@H]5C[C@@H](NC(=O)CCN(C)C)CC[C@]5(C)C4CC(=O)[C@]3(C)C1[C@@H]2C (stereo partly shown) [Embodiment 20A]
IL-10 in hippocampus [2]: only affected | IL-10 in serum [2]: only affected | anti-inflammatory effect (in words) [2]: obvious anti-inflammatory effect; also recorded: good anti-inflammatory effect | antioxidant effect (in words) [2]: good antioxidant effect | H2O2 concentration in serum ([2]; vs LPS group): significantly improved | NO concentration in serum ([2]; vs LPS group): significantly improved | ROS level in serum ([2]; vs LPS group): significantly improved

C[C@H]1CC[C@@]2(OC1)O[C@H]1C[C@H]3[C@@H]4CC[C@@H]5CC(NC(=O)CC(=O)N6CCN(C7CCN(CCF)CC7)CC6)CC[C@]5(C)C4CC[C@]3(C)[C@H]1[C@@H]2C (stereo partly shown) [Embodiment 36]
colon ulcer area [3]: could reduce | colon weight per unit length (colon weight/colon length) [3]: could reduce

O=C(O)c1cc(/N=N/c2ccc(S(=O)(=O)Nc3ccccn3)cc2)ccc1O [SASP, reference compound]
colon atrophy ([4]; 720 mg/kg positive drug): could inhibit colon atrophy | general conditions of DSS colitis mice ([4]; 720 mg/kg positive drug): certain improvement effects

C[C@H]1CC[C@@]2(OC1)OC1CC3C4CC[C@@H]5C[C@@H](NC(=O)CC(=O)NCCO)CC[C@]5(C)C4CC[C@]3(C)C1[C@@H]2C (stereo partly shown) [Embodiment 14A]
protection of H2O2-induced neural tumor cell damages [5]: significantly protected

CC(C)CN1CCN(C2CCN(C(=O)CC(=O)NC3CC[C@]4(C)C5CC[C@]6(C)[C@@H]7[C@H](C[C@H]6[C@@H]5CC[C@@H]4C3)O[C@]3(CC[C@H](C)CO3)[C@H]7C)CC2)CC1 (stereo partly shown) [Embodiment 33]
colon length [4, 6]: could increase the weights and lengths of the colons | colon weight [4, 6]: could increase the weights and lengths of the colons | general conditions of DSS colitis mice [4, 6]: certain improvement effects

C[C@H]1CC[C@@]2(OC1)O[C@H]1C[C@H]3[C@@H]4CC[C@@H]5CC(NC(=O)CCN6CCN(C)CC6)CC[C@]5(C)[C@H]4CC[C@]3(C)[C@H]1[C@@H]2C (stereo partly shown) [Embodiment 1]
protective effects on L-Cystine (400 μM)-induced neuronal excitotoxicity (hippocampal neurons): protective effects

CC(C)N1CCC(N2CCN(C(=O)CC(=O)NC3CC[C@]4(C)C5CC[C@]6(C)[C@@H]7[C@H](C[C@H]6[C@@H]5CC[C@@H]4C3)O[C@]3(CC[C@H](C)CO3)[C@H]7C)CC2)CC1 (stereo partly shown) [Embodiment 34]
colon length [4, 6]: could increase the weights and lengths of the colons | colon weight [4, 6]: could increase the weights and lengths of the colons | general conditions of DSS colitis mice [4, 6]: certain improvement effects

C[C@H]1CC[C@@]2(OC1)O[C@H]1C[C@H]3[C@@H]4CC[C@@H]5CC(NC(=O)CC(=O)N6CCN(C(=O)CN(C)C)CC6)CC[C@]5(C)C4CC[C@]3(C)[C@H]1[C@@H]2C (stereo partly shown) [Embodiment 37]
colon ulcer area [3]: could reduce | colon weight per unit length (colon weight/colon length) [3]: could reduce

C[C@H]1CC[C@@]2(OC1)O[C@H]1C[C@@H]3[C@H](CC[C@H]4[C@H]3CC[C@@H]3CC(NC(=O)CC(=O)NCC5CCN(C)CC5)CC[C@@]34C)[C@H]1[C@@H]2C (stereo partly shown) [Embodiment 7]
protection of H2O2-induced neural tumor cell damages [5]: significantly protected

C[C@H]1CC[C@@]2(OC1)O[C@H]1C[C@H]3[C@@H]4CC[C@@H]5C[C@H](NC(=O)CCN(C)C)CC[C@]5(C)[C@H]4CC[C@]3(C)[C@H]1[C@@H]2C [Embodiment 4B]
protective effects on L-Cystine (400 μM)-induced neuronal excitotoxicity (hippocampal neurons): protective effects

N[C@H](CCCP(=O)(O)O)C(=O)O [AP5, (2R)-amino-5-phosphonopentanoic acid(phosphonatopentanoate), reference compound]
protective effect on the neuronal excitotoxicity (hippocampal neurons; AP5 100 μM): very significant protective effect | proportion of dead cells (hippocampal neurons; AP5 100 μM, L-Cystine 400 μM + NaHCO3 10 mM, without inducer 20.12%, DMSO 87.62%): 27.58%

C[C@H]1CC[C@@]2(OC1)O[C@H]1C[C@H]3[C@@H]4CC[C@@H]5CC(NC(=O)CC(=O)N6CCNCC6)CC[C@]5(C)[C@H]4CC[C@]3(C)[C@H]1[C@@H]2C (stereo partly shown) [Embodiment 10]
protective effects on L-Cystine (400 μM)-induced neuronal excitotoxicity (hippocampal neurons): protective effects
